Measured values as given in the CheMixHub ionic liquid set.
Where “and” joins values, the source holds several entries; their conditions need not be identical. Identical values can stand only once.

Assay: xn = mol fraction of the nth substance listed

CCCCCCCCCCCCCC[P+](CCCCCC)(CCCCCC)CCCCCC.O=S(=O)([N-]S(=O)(=O)C(F)(F)F)C(F)(F)F + COCCOCCOCCOCCOC
viscosity [mPa·s], 100 kPa
Conditions | 278.15 K | 283.15 K | 288.15 K | 293.15 K | 298.15 K | 303.15 K | 313.15 K | 323.15 K
x2 = 0.191 | 589 | 414 | 299 | 221 | 168 | 130 | 83 | 60
x2 = 0.366 | 281 | 207 | 157 | 121 | 96 | 77 | 52 | –
x2 = 0.559 | 111 | 85 | 67 | 54 | – | – | – | –
x2 = 0.664 | 64 | 51 | – | – | – | – | – | –

O=C1CCCO1 + COCCn1cc[n+](C)c1.N#C[S-]
Conditions | viscosity [mPa·s]
313.15 K, 101 kPa, x2 = 0 | 1.38

CC(C)O + CS(=O)(=O)[O-].C[N+](C)(CCO)CCO
101 kPa, x2 = 0
Conditions | viscosity [mPa·s]
298.15 K | 2.08
303.15 K | 1.79
308.15 K | 1.546
313.15 K | 1.343
318.15 K | 1.189
323.15 K | 1.056

CCCC[n+]1ccn(C)c1.O=S(=O)([O-])C(F)(F)F + CS(C)=O
viscosity [mPa·s], 100 kPa
Conditions | x1 = 0.1006 | x1 = 0.2001 | x1 = 0.3054 | x1 = 0.4035 | x1 = 0.502 | x1 = 0.6085 | x1 = 0.7001 | x1 = 0.8088 | x1 = 0.9004 | x1 = 1
298.15 K | 4 | 6.59 | 10.1 | 14.3 | 21.8 | 33 | 44 | 59.8 | 72.8 | 82.4
303.15 K | 3.57 | 5.71 | 8.68 | 12.4 | 18.4 | 27.2 | 36 | 48.1 | 58.3 | 66.7
308.15 K | 3.18 | – | 7.55 | 10.5 | 15.5 | 22.7 | 29.7 | 39.6 | 47.4 | 52.9
313.15 K | 2.88 | 4.46 | 6.61 | 9.22 | 13.3 | 19.2 | 25 | 32.8 | 39 | 43.7
318.15 K | 2.61 | 3.98 | 5.83 | 8.08 | 11.5 | 16.4 | 21.2 | 27.5 | 32.6 | 36.3
323.15 K | 2.38 | 3.59 | 5.2 | 7.15 | 10.1 | 14.2 | 18.1 | 23.4 | 27.5 | 30.6

CCOP(=O)([O-])OCC.CC[n+]1ccn(C)c1 + CS(C)=O
298.1 K, 100 kPa
Conditions | electrical conductivity
x1 = 0.025 | 0.31 S/m and 0.4 S/m
x1 = 0.407 | 0.4 S/m
x1 = 0.718 | 0.16 S/m
x1 = 1 | 0.09 S/m

CCCC[n+]1ccn(C)c1.O=S(=O)([O-])C(F)(F)F + CS(C)=O + OCCO
viscosity [mPa·s], 100 kPa
Conditions | 298.15 K | 303.15 K | 308.15 K | 313.15 K | 318.15 K | 323.15 K
x1 = 0.0301, x2 = 0.903 | 3.07 | 2.75 | 2.47 | 2.25 | 2.04 | 1.86
x1 = 0.0698, x2 = 0.8409 | 3.41 | 3.16 | 2.83 | 2.56 | 2.32 | 2.12
x1 = 0.1006, x2 = 0.7931 | 4.04 | 3.69 | 3.29 | 2.96 | 2.67 | 2.43
x1 = 0.1311, x2 = 0.7537 | 5.33 | 4.67 | 4.14 | 3.69 | 3.31 | 3
x1 = 0.1702, x2 = 0.7004 | 6.5 | 5.61 | 4.93 | 4.37 | 3.9 | 3.51
x1 = 0.2067, x2 = 0.6494 | 8.13 | 6.91 | 6.04 | 5.31 | 4.71 | 4.21
x1 = 0.2329, x2 = 0.603 | 9 | 7.8 | 6.78 | 5.95 | 5.26 | 4.68
x1 = 0.2768, x2 = 0.5373 | 11.8 | 9.8 | 8.47 | 7.38 | 6.48 | 5.74
x1 = 0.3089, x2 = 0.4851 | 13.6 | 11.2 | 9.67 | 8.39 | 7.35 | 6.48
x1 = 0.3348, x2 = 0.4441 | 15.1 | 12.1 | 10.4 | 8.97 | 7.83 | 6.89
x1 = 0.3723, x2 = 0.3876 | 17.3 | 14.2 | 12.2 | 10.5 | 9.13 | 8
x1 = 0.4022, x2 = 0.3357 | 19 | 15.7 | 13.4 | 11.5 | 10 | 8.73
x1 = 0.4355, x2 = 0.2923 | 21.3 | 17.9 | 15.1 | 13 | 11.2 | 9.82
x1 = 0.473, x2 = 0.2581 | 23.3 | 19.3 | 16.3 | 14 | 12.1 | 10.5
x1 = 0.5076, x2 = 0.2336 | 25.5 | 21.2 | 17.9 | 15.2 | 13.1 | 11.4
x1 = 0.5442, x2 = 0.2004 | 27.9 | 23.2 | 19.6 | 16.6 | 14.3 | 12.4
x1 = 0.5775, x2 = 0.1858 | 30.3 | 25.2 | 21.2 | 18 | 15.4 | 13.4
x1 = 0.6051, x2 = 0.18 | 32.5 | 26.9 | 22.6 | 19.2 | 16.4 | 14.2
x1 = 0.6226, x2 = 0.1647 | 33.8 | 27.8 | 23.3 | 19.7 | 16.9 | 14.6
x1 = 0.6651, x2 = 0.1526 | 37.8 | 31 | 26.1 | 22 | 18.8 | 16.2
x1 = 0.6961, x2 = 0.1474 | 41.2 | 33.5 | 28.2 | 23.8 | 20.3 | 17.5

CCCCCCCCCCCCCCCC[n+]1ccccc1.O=C([O-])c1ccccc1O + C[C@H](N)C(=O)O + O
electrical conductivity [S/m], 101 kPa
Conditions | 293.15 K | 298.15 K | 303.15 K | 308.15 K | 313.15 K
x2 = 0.0009002, x1 = 5.4e-07 | 0.00045 | 0.00051 | 0.000575 | 0.000646 | 0.000726
x2 = 0.0009002, x1 = 1.09e-06 | 0.000683 | 0.000777 | 0.000872 | 0.000975 | 0.00108
x2 = 0.0009002, x1 = 1.63e-06 | 0.000904 | 0.00102 | 0.00114 | 0.00127 | 0.00141
x2 = 0.0009002, x1 = 2.17e-06 | 0.00109 | 0.00123 | 0.00139 | 0.00155 | 0.00172
x2 = 0.0009002, x1 = 2.53e-06 | – | – | – | 0.00181 | 0.002
x2 = 0.0009002, x1 = 2.71e-06 | 0.00125 | 0.00144 | 0.00162 | – | –
x2 = 0.0009002, x1 = 3.07e-06 | 0.00137 | 0.00158 | 0.0018 | 0.00202 | 0.00228
x2 = 0.0009002, x1 = 3.62e-06 | 0.00148 | 0.0017 | 0.00195 | 0.00222 | 0.00249
x2 = 0.0009002, x1 = 3.98e-06 | 0.00159 | 0.00182 | 0.00208 | 0.00237 | 0.00267
x2 = 0.0009002, x1 = 4.52e-06 | 0.0017 | 0.00194 | 0.00222 | 0.00253 | 0.00286
x2 = 0.0009002, x1 = 4.88e-06 | 0.00181 | 0.00206 | 0.00235 | 0.00268 | 0.00303
x2 = 0.0009002, x1 = 5.43e-06 | 0.00191 | 0.00218 | 0.00248 | 0.00282 | 0.00319
x2 = 0.0009002, x1 = 5.79e-06 | 0.002 | 0.00228 | 0.0026 | 0.00295 | 0.00334
x2 = 0.0009002, x1 = 6.15e-06 | 0.0021 | 0.00239 | 0.00271 | 0.00308 | 0.00347
x2 = 0.0009002, x1 = 6.51e-06 | 0.00217 | 0.00247 | 0.0028 | 0.00318 | 0.0036
x2 = 0.0009002, x1 = 6.69e-06 | 0.00224 | 0.00255 | 0.00289 | 0.00327 | 0.00369
x2 = 0.001799, x1 = 3.6e-07 | 0.00047 | 0.000542 | 0.000625 | 0.000719 | 0.000829
x2 = 0.001799, x1 = 5.4e-07 | 0.000604 | 0.000697 | 0.000797 | 0.000911 | 0.00103
x2 = 0.001799, x1 = 9.1e-07 | 0.00073 | 0.000837 | 0.000953 | 0.00108 | 0.00123
x2 = 0.001799, x1 = 1.27e-06 | 0.000889 | 0.00102 | 0.00115 | 0.0013 | 0.00146
x2 = 0.001799, x1 = 1.63e-06 | 0.00104 | 0.00119 | 0.00134 | 0.00151 | 0.0017
x2 = 0.001799, x1 = 1.81e-06 | 0.00112 | 0.00128 | 0.00145 | 0.00163 | 0.00183
x2 = 0.001799, x1 = 2e-06 | 0.00121 | 0.00138 | 0.00156 | 0.00175 | 0.00196
x2 = 0.001799, x1 = 2.18e-06 | 0.00127 | 0.00145 | 0.00165 | 0.00186 | 0.00208
x2 = 0.001799, x1 = 2.36e-06 | – | – | 0.00177 | 0.00198 | 0.00222
x2 = 0.001799, x1 = 2.54e-06 | 0.00134 | 0.00155 | – | – | –
x2 = 0.001799, x1 = 2.72e-06 | 0.00142 | 0.00164 | 0.00188 | 0.00212 | 0.0024
x2 = 0.001799, x1 = 3.09e-06 | 0.00151 | 0.00174 | 0.002 | 0.00229 | 0.0026
x2 = 0.001799, x1 = 3.63e-06 | 0.00161 | 0.00186 | 0.00213 | 0.00244 | 0.00276
x2 = 0.001799, x1 = 3.99e-06 | 0.00173 | 0.00198 | 0.00227 | 0.0026 | 0.00296
x2 = 0.001799, x1 = 4.54e-06 | 0.00183 | 0.0021 | 0.0024 | 0.00275 | 0.00312
x2 = 0.001799, x1 = 4.9e-06 | 0.00192 | 0.0022 | 0.00251 | 0.00287 | 0.00326
